# Data: patent publication US20090118332A1, “Therapeutic Agents - 551” (AstraZeneca AB, priority 2006, published 2009)
# Target: T1, human Fatty Acid Synthase (Homo sapiens, UniProt P49327)
# T1 construct: made in house
# Test: Human FAS enzyme assay (decrease in NADPH fluorescence)
# Assay type: biochemical
# Details: % inhibition at a concentration of 100 μmolar
# Procedure, shortened: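 In-house human FAS was preincubated with compound and NADPH for 15 min at room temperature in 0.1 M Tris pH 7.5 with EDTA, glutathione and BSA. Malonyl CoA and acetyl CoA (500 μM and 150 μM in the added mix) were then added for 60 min. IC50 came from time-zero-subtracted NADPH fluorescence (340/460 nm).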
# T1 sequence (P49327 whole entry): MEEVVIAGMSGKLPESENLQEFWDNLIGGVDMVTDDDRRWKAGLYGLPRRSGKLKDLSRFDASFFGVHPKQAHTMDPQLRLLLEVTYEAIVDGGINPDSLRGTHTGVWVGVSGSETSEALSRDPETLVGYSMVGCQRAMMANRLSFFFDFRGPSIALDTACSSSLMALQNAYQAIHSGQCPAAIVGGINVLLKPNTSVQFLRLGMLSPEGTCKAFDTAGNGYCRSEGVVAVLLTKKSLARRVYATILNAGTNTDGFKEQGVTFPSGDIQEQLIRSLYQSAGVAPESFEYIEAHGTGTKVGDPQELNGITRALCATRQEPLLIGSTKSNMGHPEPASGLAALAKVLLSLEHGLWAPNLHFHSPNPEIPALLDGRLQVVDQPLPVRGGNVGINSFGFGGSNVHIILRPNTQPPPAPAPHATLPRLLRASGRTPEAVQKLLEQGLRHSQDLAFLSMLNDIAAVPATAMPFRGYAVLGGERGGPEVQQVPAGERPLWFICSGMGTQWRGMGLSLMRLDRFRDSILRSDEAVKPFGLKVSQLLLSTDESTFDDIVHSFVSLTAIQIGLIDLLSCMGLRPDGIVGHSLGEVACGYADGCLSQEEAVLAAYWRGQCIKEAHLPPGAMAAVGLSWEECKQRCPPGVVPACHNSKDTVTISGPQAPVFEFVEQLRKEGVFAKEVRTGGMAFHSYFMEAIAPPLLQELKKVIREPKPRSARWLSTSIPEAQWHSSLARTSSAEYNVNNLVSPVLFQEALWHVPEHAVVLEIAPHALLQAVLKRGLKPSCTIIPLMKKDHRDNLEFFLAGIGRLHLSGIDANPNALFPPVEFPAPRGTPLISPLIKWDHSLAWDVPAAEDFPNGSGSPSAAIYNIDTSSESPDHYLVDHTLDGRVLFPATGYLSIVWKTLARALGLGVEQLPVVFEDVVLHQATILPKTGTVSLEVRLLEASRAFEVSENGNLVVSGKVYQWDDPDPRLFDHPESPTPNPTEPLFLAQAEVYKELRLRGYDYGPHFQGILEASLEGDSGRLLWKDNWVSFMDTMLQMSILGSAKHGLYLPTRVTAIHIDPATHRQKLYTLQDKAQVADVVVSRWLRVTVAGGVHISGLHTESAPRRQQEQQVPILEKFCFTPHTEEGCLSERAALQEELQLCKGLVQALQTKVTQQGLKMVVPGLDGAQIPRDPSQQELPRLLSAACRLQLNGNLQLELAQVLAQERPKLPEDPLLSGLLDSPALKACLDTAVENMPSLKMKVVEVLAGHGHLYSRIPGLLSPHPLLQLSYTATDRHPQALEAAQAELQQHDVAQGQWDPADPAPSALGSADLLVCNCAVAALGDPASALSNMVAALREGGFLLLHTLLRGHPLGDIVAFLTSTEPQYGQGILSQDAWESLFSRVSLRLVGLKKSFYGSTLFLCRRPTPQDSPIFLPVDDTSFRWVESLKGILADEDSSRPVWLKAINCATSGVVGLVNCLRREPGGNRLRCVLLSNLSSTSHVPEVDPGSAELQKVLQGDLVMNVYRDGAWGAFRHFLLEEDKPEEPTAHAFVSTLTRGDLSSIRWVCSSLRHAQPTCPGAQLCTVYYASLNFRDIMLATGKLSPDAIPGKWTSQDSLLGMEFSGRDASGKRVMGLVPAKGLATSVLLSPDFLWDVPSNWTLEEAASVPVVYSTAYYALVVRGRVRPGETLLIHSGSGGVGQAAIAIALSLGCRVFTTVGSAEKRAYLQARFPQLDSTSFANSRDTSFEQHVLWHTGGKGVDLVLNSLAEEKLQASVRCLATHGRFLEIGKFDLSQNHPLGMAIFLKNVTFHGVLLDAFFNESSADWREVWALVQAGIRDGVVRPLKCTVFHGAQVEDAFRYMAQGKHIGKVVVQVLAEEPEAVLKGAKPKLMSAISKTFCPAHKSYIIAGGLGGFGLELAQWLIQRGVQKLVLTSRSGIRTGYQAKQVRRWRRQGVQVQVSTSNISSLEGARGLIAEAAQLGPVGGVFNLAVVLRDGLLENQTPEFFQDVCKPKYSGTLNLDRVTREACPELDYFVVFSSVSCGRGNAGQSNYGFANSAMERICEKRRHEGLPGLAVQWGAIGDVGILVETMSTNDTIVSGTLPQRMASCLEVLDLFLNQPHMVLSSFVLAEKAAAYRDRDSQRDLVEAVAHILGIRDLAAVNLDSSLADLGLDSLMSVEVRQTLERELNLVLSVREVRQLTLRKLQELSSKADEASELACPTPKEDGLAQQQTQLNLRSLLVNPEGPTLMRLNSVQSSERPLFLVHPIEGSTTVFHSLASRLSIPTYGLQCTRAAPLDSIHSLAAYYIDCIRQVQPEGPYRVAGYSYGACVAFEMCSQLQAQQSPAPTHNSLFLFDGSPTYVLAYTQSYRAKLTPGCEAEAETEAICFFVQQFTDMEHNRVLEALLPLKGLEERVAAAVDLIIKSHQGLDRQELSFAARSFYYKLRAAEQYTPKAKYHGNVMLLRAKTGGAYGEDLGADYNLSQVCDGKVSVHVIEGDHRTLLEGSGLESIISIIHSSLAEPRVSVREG
row,Compound,inhibition at 100 µM
1,"Cc1ccc(C(=O)N2CCC(c3ccc(C#N)cc3)CC2)cc1NC(=O)N[C@@H]1CCOC1 [Example 199, 1-[5-[4-(4-cyanophenyl)piperidine-1-carbonyl]-2-methyl-phenyl]-3-[(3R)-oxolan-3-yl]urea]",96.3%
2,"Cc1ccc(C(=O)N2CCC(c3ccc(C#N)cc3)CC2)cc1NC(=O)NCCCc1cn[nH]c1C [Example 200, 1-[5-[4-(4-cyanophenyl)piperidine-1-carbonyl]-2-methyl-phenyl]-3-[3-(3-methyl-2H-pyrazol-4-yl)propyl]urea]",91.8%
3,"CCc1ccc(C(=O)N2CCC(c3ccc(C#N)cc3)CC2)cc1NC(=O)NC(C)C [Example 201, 1-[5-[4-(4-cyanophenyl)piperidine-1-carbonyl]-2-ethyl-phenyl]-3-propan-2-yl-urea]",94%
4,"Cc1ccc(C(=O)N2CCC(c3ccc(C#N)cc3)CC2)cc1NC(=O)NCC(C)(C)NC(=O)C(C)(C)C [Example 205, N-[1-[[5-[4-(4-cyanophenyl)piperidine-1-carbonyl]-2-methyl-phenyl]carbamoylamino]-2-methyl-propan-2-yl]-2,2-dimethyl-propanamide]",88.2%
5,"Cc1ccc(C(=O)N2CCC(c3ccc(C#N)cc3)CC2)cc1NC(=O)NCCCNC(=O)OC(C)(C)C [Example 206, tert-butyl N-[3-[[5-[4-(4-cyanophenyl)piperidine-1-carbonyl]-2-methyl-phenyl]carbamoylamino]propyl]carbamate]",83.8%
6,"Cc1ccc(C(=O)N2CCC(c3ccc(C#N)cc3)CC2)cc1NC(=O)N[C@@H]1CCN(C(=O)OC(C)(C)C)C1 [Example 209, tert-butyl (3R)-3-[[5-[4-(4-cyanophenyl)piperidine-1-carbonyl]-2-methyl-phenyl]carbamoylamino]pyrrolidine-1-carboxylate]",89.7%
7,"Cc1ccc(C(=O)N2CCC(c3ccc(C#N)cc3)CC2)cc1NC(=O)NC1CCNCC1 [Example 211, 1-[5-[4-(4-cyanophenyl)piperidine-1-carbonyl]-2-methyl-phenyl]-3-(4-piperidyl)urea]",87.4%
8,"Cc1ccc(C(=O)N2CCC(c3ccc(C#N)cc3)CC2)cc1NC(=O)N[C@H]1CCNC1 [Example 213, 1-[5-[4-(4-cyanophenyl)piperidine-1-carbonyl]-2-methyl-phenyl]-3-[(3S)-pyrrolidin-3-yl]urea]",88.6%
9,"Cc1ccc(C(=O)N2CCC(c3ccc(C#N)cc3)CC2)cc1NC(=O)NCCN(C)S(=O)(=O)C(C)C [Example 214, 1-[5-[4-(4-cyanophenyl)piperidine-1-carbonyl]-2-methyl-phenyl]-3-[2-(methyl-propan-2-ylsulfonyl-amino)ethyl]urea]",89.8%
10,"Cc1ccc(C(=O)N2CCC(c3ccc(C#N)cc3)CC2)cc1NC(=O)NCCCNS(C)(=O)=O [Example 215, 1-[5-[4-(4-cyanophenyl)piperidine-1-carbonyl]-2-methyl-phenyl]-3-(3-methanesulfonamidopropyl)urea]",100%
11,"Cc1ccc(C(=O)N2CCC(c3ccc(C#N)cc3)CC2)cc1NC(=O)N[C@@H]1CCN(S(C)(=O)=O)C1 [Example 218, 1-[5-[4-(4-cyanophenyl)piperidine-1-carbonyl]-2-methyl-phenyl]-3-[(3R)-1-methylsulfonylpyrrolidin-3-yl]urea]",84.4%
12,"CCS(=O)(=O)N1CC[C@@H](NC(=O)Nc2cc(C(=O)N3CCC(c4ccc(C#N)cc4)CC3)ccc2C)C1 [Example 219, 3-[5-[4-(4-cyanophenyl)piperidine-1-carbonyl]-2-methyl-phenyl]-1-[(3R)-1-ethylsulfonylpyrrolidin-3-yl]urea]",88.8%
13,"Cc1ccc(C(=O)N2CCC(c3ccc(C#N)cc3)CC2)cc1NC(=O)NC1CC1 [Example 225, 1-[5-[4-(4-cyanophenyl)piperidine-1-carbonyl]-2-methyl-phenyl]-3-cyclopropyl-urea]",89.9%
14,"CCC(C)NC(=O)Nc1cc(C(=O)N2CCC(c3ccc(C#N)cc3)CC2)ccc1C (stereo not shown) [Example 226, 1-butan-2-yl-3-[5-[4-(4-cyanophenyl)piperidine-1-carbonyl]-2-methyl-phenyl]urea]",84.2%
15,"Cc1ccc(C(=O)N2CCC(c3ccc(C#N)cc3)CC2)cc1NC(=O)NC(C)C(C)C (stereo not shown) [Example 229, 1-[5-[4-(4-cyanophenyl)piperidine-1-carbonyl]-2-methyl-phenyl]-3-(3-methylbutan-2-yl)urea]",88.7%

# Continued, values first:
row,inhibition at 100 µM,Compound
1,91.7%,"Cc1ccc(C(=O)N2CCC(c3ccc(C#N)cc3)CC2)cc1NC(=O)NCC(O)COc1ccccc1Cl (stereo not shown) [Example 196, 3-[3-(2-chlorophenoxy)-2-hydroxy-propyl]-1-[5-[4-(4-cyanophenyl)piperidine-1-carbonyl]-2-methyl-phenyl]urea]"
2,84.4%,"Cc1ccc(C(=O)N2CCC(c3ccc(C#N)cc3)CC2)cc1NC(=O)NC12CC3CC(CC(O)(C3)C1)C2 [Example 197, 1-[5-[4-(4-cyanophenyl)piperidine-1-carbonyl]-2-methyl-phenyl]-3-(3-hydroxy-1-adamantyl)urea]"
3,87.9%,"COC[C@@H](CO)NC(=O)Nc1cc(C(=O)N2CCC(c3ccc(C#N)cc3)CC2)ccc1C [Example 198, 1-[5-[4-(4-cyanophenyl)piperidine-1-carbonyl]-2-methyl-phenyl]-3-[(2R)-1-hydroxy-3-methoxy-propan-2-yl]urea]"
4,97.3%,"Cc1ccc(C(=O)N2CCC(c3ccc(C#N)cc3)CC2)cc1NC(=O)NCC(C)(C)NS(C)(=O)=O [Example 202, 1-[5-[4-(4-cyanophenyl)piperidine-1-carbonyl]-2-methyl-phenyl]-3-(2-methanesulfonamido-2-methyl-propyl)urea]"
5,91%,"Cc1ccc(C(=O)N2CCC(c3ccc(C#N)cc3)CC2)cc1NC(=O)NCC(C)(C)N [Example 203, 3-(2-amino-2-methyl-propyl)-1-[5-[4-(4-cyanophenyl)piperidine-1-carbonyl]-2-methyl-phenyl]urea]"
6,91%,"CCS(=O)(=O)NC(C)(C)CNC(=O)Nc1cc(C(=O)N2CCC(c3ccc(C#N)cc3)CC2)ccc1C [Example 204, 3-[5-[4-(4-cyanophenyl)piperidine-1-carbonyl]-2-methyl-phenyl]-1-[2-(ethylsulfonylamino)-2-methyl-propyl]urea]"
7,89.7%,"Cc1ccc(C(=O)N2CCC(c3ccc(C#N)cc3)CC2)cc1NC(=O)NCCCN [Example 207, 3-(3-aminopropyl)-1-[5-[4-(4-cyanophenyl)piperidine-1-carbonyl]-2-methyl-phenyl]urea]"
8,84.9%,"Cc1ccc(C(=O)N2CCC(c3ccc(C#N)cc3)CC2)cc1NC(=O)NC1CCN(C(=O)OC(C)(C)C)CC1 [Example 208, tert-butyl 4-[[5-[4-(4-cyanophenyl)piperidine-1-carbonyl]-2-methyl-phenyl]carbamoylamino]piperidine-1-carboxylate]"
9,97.4%,"Cc1ccc(C(=O)N2CCC(c3ccc(C#N)cc3)CC2)cc1NC(=O)N[C@H]1CCN(C(=O)OC(C)(C)C)C1 [Example 210, tert-butyl (3S)-3-[[5-[4-(4-cyanophenyl)piperidine-1-carbonyl]-2-methyl-phenyl]carbamoylamino]pyrrolidine-1-carboxylate]"
10,97%,"Cc1ccc(C(=O)N2CCC(c3ccc(C#N)cc3)CC2)cc1NC(=O)N[C@@H]1CCNC1 [Example 212, 1-[5-[4-(4-cyanophenyl)piperidine-1-carbonyl]-2-methyl-phenyl]-3-[(3R)-pyrrolidin-3-yl]urea]"
11,92.4%,"CCS(=O)(=O)NCCCNC(=O)Nc1cc(C(=O)N2CCC(c3ccc(C#N)cc3)CC2)ccc1C [Example 216, 3-[5-[4-(4-cyanophenyl)piperidine-1-carbonyl]-2-methyl-phenyl]-1-[3-(ethylsulfonylamino)propyl]urea]"
12,87%,"Cc1ccc(C(=O)N2CCC(c3ccc(C#N)cc3)CC2)cc1NC(=O)NCCCNS(=O)(=O)C(C)C [Example 217, 1-[5-[4-(4-cyanophenyl)piperidine-1-carbonyl]-2-methyl-phenyl]-3-[3-(propan-2-ylsulfonylamino)propyl]urea]"
13,96.7%,"CCC(=O)N1CC[C@H](NC(=O)Nc2cc(C(=O)N3CCC(c4ccc(C#N)cc4)CC3)ccc2C)C1 [Example 220, 3-[5-[4-(4-cyanophenyl)piperidine-1-carbonyl]-2-methyl-phenyl]-1-[(3S)-1-propanoylpyrrolidin-3-yl]urea]"
14,102%,"Cc1ccc(C(=O)N2CCC(c3ccc(C#N)cc3)CC2)cc1NC(=O)N[C@H]1CCN(S(C)(=O)=O)C1 [Example 221, 1-[5-[4-(4-cyanophenyl)piperidine-1-carbonyl]-2-methyl-phenyl]-3-[(3S)-1-methylsulfonylpyrrolidin-3-yl]urea]"
15,90.7%,"CCS(=O)(=O)N1CC[C@H](NC(=O)Nc2cc(C(=O)N3CCC(c4ccc(C#N)cc4)CC3)ccc2C)C1 [Example 222, 3-[5-[4-(4-cyanophenyl)piperidine-1-carbonyl]-2-methyl-phenyl]-1-[(3S)-1-ethylsulfonylpyrrolidin-3-yl]urea]"
16,92.8%,"Cc1ccc(C(=O)N2CCC(c3ccc(C#N)cc3)CC2)cc1NC(=O)NCCCS(C)(=O)=O [Example 223, 1-[5-[4-(4-cyanophenyl)piperidine-1-carbonyl]-2-methyl-phenyl]-3-(3-methylsulfonylpropyl)urea]"
17,71.9%,"N#Cc1ccc(C2CCN(C(=O)c3cc(NC(=O)NCc4ccccc4)ccc3F)CC2)cc1 [Example 224, 1-benzyl-3-[3-[4-(4-cyanophenyl)piperidine-1-carbonyl]-4-fluoro-phenyl]urea]"
18,90.1%,"CCCNC(=O)Nc1cc(C(=O)N2CCC(c3ccc(C#N)cc3)CC2)ccc1C [Example 227, 3-[5-[4-(4-cyanophenyl)piperidine-1-carbonyl]-2-methyl-phenyl]-1-propyl-urea]"
19,82.1%,"Cc1ccc(C(=O)N2CCC(c3ccc(C#N)cc3)CC2)cc1NC(=O)NC1CCCCC1 [Example 228, 1-[5-[4-(4-cyanophenyl)piperidine-1-carbonyl]-2-methyl-phenyl]-3-cyclohexyl-urea]"
